The experiment deals with BC-1 cells. Description: MTT assay, deletion and mutant peptides. It counts as cell-based, human. The source says: Fig. 2 Viral and cellular responses to K-Rta peptide; identification of VGN50. a Protein sequence alignment. Homologous protein sequences were searched for with BLAST and extracted from other gamma-herpesviral homologs. The consensus protein sequence is depicted at the bottom of table. b Peptide design. Deletion peptides were designed based on the consensus sequence in a. The TAT protein sequence was used as a cell-penetrating peptide (CPP) and placed downstream from the K-Rta protein sequence. (d-R) D amino acid arginine, (ORN) ornithine, (bAla) beta alanine. c Sub cellular peptide localization. Cy5-labeled peptide 1 was used to track subcellular localization. Nuclei were visualized by DAPI staining. The scale is indicated in the panel. d MTT assays with deletion and mutant peptides. Peptide listed in b were incubated with BC-1 cells and MTT conversion was measured 48 h after incubation. The OD of mock-treated samples were set as 100%, and OD from detergent-treated cells were set as 0%. The amount of each peptide used for incubation is depicted along the x-axis. Mean percentage viability ±SD were calculated for each treatment group (n = 3 samples). Peptide 1 was renamed as VGN50. e Flow cytometry analyses of cell proliferation and apoptosis induction. Cells were incubated with VGN50 or mutant peptide (three alanine substitutions) for 24 h followed by measurements of percentage cell proliferation (Ki67 staining) and apoptosis induction (Annexin V staining). Standard deviation bars are included. (n = 3) Two-way Anova, followed by Sidak’s multiple comparisons test. f The effect of VGN50 on various cancer cell types. MTT assays were performed with the indicated cell lines treated with various VGN50 concentrations. The OD of mock-treated samples were set as 100%, and OD from detergent-treated cells were set as 0%. Mean percentage viability ±SD was calculated for each treatment (n = 3 samples/treatment). g Viability assay with flow cytometry. Cell viability was measured in triplicate with live/dead staining and the cell killing effects on cancer cells was compared with normal peripheral blood mononuclear cells (PBMC) from three healthy donors. Results are presented as mean percentage viability ±SD (n = 3 samples/group). f, g Ordinary one-way Anova, followed by Tukey’s multiple comparisons test. […]
Leukoreduction system chambers (LRS) from healthy donors were purchased from Vitalant. […] Cell death, apoptosis, and proliferation were analyzed by flow cytometry (BD Acuri) after intracellular staining with anti-humanKi67-Alexa488 (Biolegend, 1:100) along with the isotype control antibody, annexin-V-FITC with 7-AAD staining (Biolegend) according to the manufacture’s protocol, Live/dead Fixable Red Dead Cell staining kit (Invitrogen) according to the manufacture’s protocol, or MTT assay. […]
Background: Tetrazolium assays rely on reduction of a dye to a coloured formazan, in cell work by metabolically active cells.

The values below come from article PMC8639922, “KSHV transactivator-derived small peptide traps coactivators to attenuate MYC and inhibits leukemia and lymphoma cell growth” (Communications Biology, 2021).

Regarding `CC[C@H](C)[C@H](NC(=O)[C@H](CO)NC(=O)[C@H](CO)NC(=O)[C@H](CC(C)C)NC(=O)[C@H](CC(C)C)NC(=O)[C@H](C)NC(=O)[C@H](CC(=O)O)NC(=O)CCNC(=O)[C@H](CCCNC(=N)N)NC(=O)[C@H](CCCNC(=N)N)NC(=O)[C@H](CCCNC(=N)N)NC(=O)[C@H](CCCN)NC(=O)[C@H](CCCNC(=N)N)NC(=O)[C@H](CCCNC(=N)N)NC(=O)[C@H](CCCCN)NC(=O)[C@H](CCCCN)NC(=O)[C@H](N)CCCNC(=N)N)C(=O)N[C@@H](CC(C)C)C(=O)N[C@@H](CCC(N)=O)C(=O)NCC(=O)N[C@@H](CC(C)C)C(=O)N[C@@H](Cc1ccc(O)cc1)C(=O)N[C@@H](CCC(N)=O)C(=O)N[C@@H](CC(C)C)C(=O)N[C@@H](CC(=O)O)C(=O)N[C@H](C(=O)O)[C@@H](C)O` [Pep 3], the “Reduction of cell viability (MTT) compared to untreated control” value (BC-1, 16 µM) came out at 90%.
With `CC[C@H](C)[C@H](NC(=O)[C@H](CO)NC(=O)[C@H](CO)NC(=O)[C@H](CC(C)C)NC(=O)[C@H](CC(C)C)NC(=O)[C@H](C)NC(=O)[C@H](CC(=O)O)NC(=O)[C@H](CC(=O)O)NC(=O)CCNC(=O)[C@H](CCCNC(=N)N)NC(=O)[C@H](CCCNC(=N)N)NC(=O)[C@H](CCCNC(=N)N)NC(=O)[C@H](CCCN)NC(=O)[C@H](CCCNC(=N)N)NC(=O)[C@H](CCCNC(=N)N)NC(=O)[C@H](CCCCN)NC(=O)[C@H](CCCCN)NC(=O)[C@H](N)CCCNC(=N)N)C(=O)N[C@@H](CC(C)C)C(=O)N[C@@H](CCC(N)=O)C(=O)NCC(=O)N[C@@H](CC(C)C)C(=O)N[C@@H](Cc1ccc(O)cc1)C(=O)O` [Pep 4], under “BC-1”, the “Fold less effective compared to Pep 1 and 3 (MTT)” value is given as ~ 4 fold.
For the molecule `CC[C@H](C)[C@H](NC(=O)[C@H](CO)NC(=O)[C@H](CO)NC(=O)CCNC(=O)[C@H](CCCNC(=N)N)NC(=O)[C@H](CCCNC(=N)N)NC(=O)[C@H](CCCNC(=N)N)NC(=O)[C@H](CCCN)NC(=O)[C@H](CCCNC(=N)N)NC(=O)[C@H](CCCNC(=N)N)NC(=O)[C@H](CCCCN)NC(=O)[C@H](CCCCN)NC(=O)[C@H](N)CCCNC(=N)N)C(=O)N[C@@H](CC(C)C)C(=O)N[C@@H](CCC(N)=O)C(=O)NCC(=O)N[C@@H](CC(C)C)C(=O)N[C@@H](Cc1ccc(O)cc1)C(=O)N[C@@H](CCC(N)=O)C(=O)N[C@@H](CC(C)C)C(=O)N[C@@H](CC(=O)O)C(=O)N[C@H](C(=O)O)[C@@H](C)O` [Pep 2], the “Reduction of cell viability (MTT) compared to untreated control” value (BC-1, 64 μM) worked out at 20%.
